Converted amounts (≈) assume the structure as drawn.
Columns and labels:
Assay type in all cases: cell-based
[1] = system: Streptococcus pneumoniae ATCC6303; experiment: MIC, microbroth dilution (NCCLS); conditions: rifS strain, THY Broth with 1 mg/mL catalase, 5% CO2, 37° C., read-out: Antimicrobial activity (MIC)
[2] = system: Haemophilus influenzae ATCC10211; experiment: MIC, microbroth dilution (NCCLS); conditions: rifS strain, BHI Broth with NAD and hematin, 37° C., read-out: Antimicrobial activity (MIC)
[3] = system: Streptococcus pyogenes ATCC19615; experiment: MIC, microbroth dilution (NCCLS); conditions: rifS strain, THY Broth, 37° C., read-out: Antimicrobial activity (MIC)
[4] = system: Staphylococcus epidermidis ATCC12228; experiment: MIC, microbroth dilution (NCCLS); conditions: rifS strain, Cation-Adjusted Mueller-Hinton Broth, 37° C., read-out: Antimicrobial activity (MIC)
[5] = system: Enterococcus faecalis ATCC29212; experiment: MIC, microbroth dilution (NCCLS); conditions: rifS strain, BHI Broth, 37° C., read-out: Antimicrobial activity (MIC)
[6] = system: Staphylococcus aureus ATCC29213 rpoB^H418Y; experiment: microbe, parasite or virus in culture; conditions: ATCC29213, read-out: Antimicrobial activity (MIC)
Experimental: (§1) Representative compounds were assayed for antimicrobial activity as follows: Minimum Inhibitory Concentrations (“MICs”) were determined by the microbroth dilution method as per NCCLS guidelines (National Committee for Clinical Laboratory Standards. 2000. Methods for dilution antimicrobial susceptibility tests for bacteria that grow aerobically, 5th ed. M7-A5. National Committee for Clinical Laboratory Standards, Wayne, Pa.), except that all growth incubations were conducted at 37° C. Bacterial cultures were tested in the following bacteriological media: S. aureus, S. epidermidis, and E. coli in Cation-Adjusted Mueller-Hinton Broth, S. pneumoniae in THY Broth supplemented with 1 mg/mL catalase under 5% CO2 atmosphere, S. pyogenes in THY Broth, E. faecalis in BHI Broth, H. influenzae in BHI Broth supplemented with 0.75 μL of 1 mg/mL NAD and 150 μL of 1 mg/ml hematin per 5 mL, and M. smegmatis in Middlebrook Broth plus ADC Enrichment.
(§2) S. aureus ATCC 29213 RpoB^H418Y is a rifampin-resistant strain with a mutation in RNA polymerase, the biological target of rifamycin antibiotics. […] S. aureus EN1252a gyrA^S84L grlA^S80F is a quinolone-resistant strain due to double mutations to DNA gyrase and topoisomerase IV, the two biological targets for quinolone antibiotics.

[7] = system: Staphylococcus aureus ATCC29213 rpoB^D417Y; experiment: microbe, parasite or virus in culture; conditions: ATCC29213, read-out: Antimicrobial activity (MIC)
Experimental: as §1, §2

[8] = system: Staphylococcus aureus EN1252a gyrA^S84L grlA^S80F; experiment: microbe, parasite or virus in culture; conditions: read-out: Antimicrobial activity (MIC)
Experimental: as §1, §2

[9] = system: Escherichia coli ATCC25922; experiment: MIC, microbroth dilution (NCCLS); conditions: rifS strain, Cation-Adjusted Mueller-Hinton Broth, 37° C., read-out: Antimicrobial activity (MIC)
[10] = system: Mycobacterium smegmatis ATCC700084; experiment: MIC, microbroth dilution (NCCLS); conditions: Mycolicibacterium smegmatis, rifS strain, Middlebrook Broth plus ADC Enrichment, 37° C., read-out: Antimicrobial activity (MIC)
[11] = system: Staphylococcus aureus ATCC29213; experiment: MIC, microbroth dilution (NCCLS); conditions: rifS strain, Cation-Adjusted Mueller-Hinton Broth, 37° C., read-out: Antimicrobial activity (MIC)

Row | Compound | MIC [1] | MIC [2] | MIC [3] | MIC [4] | MIC [5] | MIC [6] | MIC [7] | MIC [8] | MIC [9] | MIC [10] | MIC [11]
1 | CO[C@H]1/C=C/O[C@@]2(C)Oc3c(C)c(O)c4c(O)c(c(CN5CCN(c6cc7c(cc6F)c(=O)c(C(=O)O)cn7C6CC6)CC5)c(O)c4c3C2=O)NC(=O)/C(C)=C\C=C\[C@H](C)[C@H](O)[C@@H](C)[C@@H](O)[C@@H](C)[C@H](OC(C)=O)[C@@H]1C [Example 12, 3-[4-[3-Carboxy-1-cyclopropyl-6-fluoro-4-oxo-(1,4-dihydroquinolin-7-yl)]-piperazin-1-ylmethyl]rifamycin SV] | 0.008 to 0.125 µg/mL (≈ 0.00768 to 0.12 µM) | 0.125 to 2 µg/mL (≈ 0.12 to 1.92 µM) | 0.008 to 0.063 µg/mL (≈ 0.00768 to 0.0605 µM) | 0.008 to 0.063 µg/mL (≈ 0.00768 to 0.0605 µM) | 2 to 32 µg/mL (≈ 1.92 to 30.7 µM) | 0.06 to 16 µg/mL (≈ 0.0576 to 15.4 µM) | 0.06 to 32 µg/mL (≈ 0.0576 to 30.7 µM) | 0.004 to 0.5 µg/mL (≈ 0.00384 to 0.48 µM) | 0.125 to 8 µg/mL (≈ 0.12 to 7.68 µM) | 0.5 to 64 µg/mL | 0.004 to 0.5 µg/mL (≈ 0.00384 to 0.48 µM)
2 | CO[C@H]1/C=C/O[C@@]2(C)Oc3c(C)c(O)c4c(O)c(c(CN5CCN(c6nc7c(cc6F)c(=O)c(C(=O)O)cn7-c6ccc(F)cc6F)CC5)c(O)c4c3C2=O)NC(=O)/C(C)=C\C=C\[C@H](C)[C@H](O)[C@@H](C)[C@@H](O)[C@@H](C)[C@H](OC(C)=O)[C@@H]1C [Example 14, 3-[4-[3-carboxy-1-(2,4-Difluoro-phenyl)-6-fluoro-4-oxo-1,4-dihydro-[1,8]naphthyridin-7-yl]piperazin-1-ylmethyl]rifamycin SV] | 0.008 to 0.125 µg/mL (≈ 0.00718 to 0.112 µM) | 0.125 to 2 µg/mL (≈ 0.112 to 1.8 µM) | 0.008 to 0.063 µg/mL (≈ 0.00718 to 0.0565 µM) | 0.008 to 0.063 µg/mL (≈ 0.00718 to 0.0565 µM) | 2 to 32 µg/mL (≈ 1.8 to 28.7 µM) | 0.06 to 16 µg/mL (≈ 0.0539 to 14.4 µM) | 0.06 to 32 µg/mL (≈ 0.0539 to 28.7 µM) | 0.004 to 0.5 µg/mL (≈ 0.00359 to 0.449 µM) | 0.125 to 8 µg/mL (≈ 0.112 to 7.18 µM) | 0.5 to 64 µg/mL | 0.004 to 0.5 µg/mL (≈ 0.00359 to 0.449 µM)
3 | CO[C@H]1/C=C/O[C@@]2(C)Oc3c(C)c(O)c4c(O)c(c(CN[C@@H]5CCN(c6cc7c(cc6F)c(=O)c(C(=O)O)cn7C6CC6)C5)c(O)c4c3C2=O)NC(=O)/C(C)=C\C=C\[C@H](C)[C@H](O)[C@@H](C)[C@@H](O)[C@@H](C)[C@H](OC(C)=O)[C@@H]1C [Example 15, (R)-3-[1-(3-carboxy-1-cyclopropyl-6-fluoro-4-oxo-1,4-dihydroquinolin-7-yl)-pyrrolidinyl-3-aminomethyl]rifamycin SV] | 0.008 to 0.125 µg/mL (≈ 0.00768 to 0.12 µM) | 0.125 to 2 µg/mL (≈ 0.12 to 1.92 µM) | 0.008 to 0.063 µg/mL (≈ 0.00768 to 0.0605 µM) | 0.008 to 0.063 µg/mL (≈ 0.00768 to 0.0605 µM) | 2 to 32 µg/mL (≈ 1.92 to 30.7 µM) | 0.06 to 16 µg/mL (≈ 0.0576 to 15.4 µM) | 0.06 to 32 µg/mL (≈ 0.0576 to 30.7 µM) | 0.004 to 0.5 µg/mL (≈ 0.00384 to 0.48 µM) | 0.125 to 8 µg/mL (≈ 0.12 to 7.68 µM) | 0.5 to 64 µg/mL | 0.004 to 0.5 µg/mL (≈ 0.00384 to 0.48 µM)
4 | CO[C@H]1/C=C/O[C@@]2(C)Oc3c(C)c(O)c4c(O)c(c(CN[C@H]5CCN(c6cc7c(cc6F)c(=O)c(C(=O)O)cn7C6CC6)C5)c(O)c4c3C2=O)NC(=O)/C(C)=C\C=C\[C@H](C)[C@H](O)[C@@H](C)[C@@H](O)[C@@H](C)[C@H](OC(C)=O)[C@@H]1C [Example 16, (S)-3-[1-(3-carboxy-1-cyclopropyl-6-fluoro-4-oxo-1,4-dihydroquinolin-7-yl)-pyrrolidinyl-3-aminomethyl]rifamycin SV] | 0.008 to 0.125 µg/mL (≈ 0.00768 to 0.12 µM) | 0.125 to 2 µg/mL (≈ 0.12 to 1.92 µM) | 0.008 to 0.063 µg/mL (≈ 0.00768 to 0.0605 µM) | 0.008 to 0.063 µg/mL (≈ 0.00768 to 0.0605 µM) | 2 to 32 µg/mL (≈ 1.92 to 30.7 µM) | 0.06 to 16 µg/mL (≈ 0.0576 to 15.4 µM) | 0.06 to 32 µg/mL (≈ 0.0576 to 30.7 µM) | 0.004 to 0.5 µg/mL (≈ 0.00384 to 0.48 µM) | 0.125 to 8 µg/mL (≈ 0.12 to 7.68 µM) | 0.5 to 64 µg/mL | 0.004 to 0.5 µg/mL (≈ 0.00384 to 0.48 µM)
5 | CO[C@H]1/C=C/O[C@@]2(C)Oc3c(C)c(O)c4c(c3C2=O)C(=O)C(N2CCN(c3ccc(N5C[C@H](CNC(C)=O)OC5=O)cc3F)CC2)=C(NC(=O)/C(C)=C\C=C\[C@H](C)[C@H](O)[C@@H](C)[C@@H](O)[C@@H](C)[C@H](OC(C)=O)[C@@H]1C)C4=O [Example 23, (S)-3-[4-[4-(5-Acetylaminomethyl-2-oxo-oxazolidin-3-yl)-2-fluoro-phenyl]-piperazin-1-yl]rifamycin S] | 0.008 to 0.125 µg/mL (≈ 0.00777 to 0.121 µM) | 0.125 to 2 µg/mL (≈ 0.121 to 1.94 µM) | 0.008 to 0.063 µg/mL (≈ 0.00777 to 0.0612 µM) | 0.008 to 0.063 µg/mL (≈ 0.00777 to 0.0612 µM) | 2 to 32 µg/mL (≈ 1.94 to 31.1 µM) | 0.06 to 16 µg/mL (≈ 0.0582 to 15.5 µM) | 0.06 to 32 µg/mL (≈ 0.0582 to 31.1 µM) | 0.004 to 0.5 µg/mL (≈ 0.00388 to 0.485 µM) | 0.125 to 8 µg/mL (≈ 0.121 to 7.77 µM) | 0.5 to 64 µg/mL | 0.004 to 0.5 µg/mL (≈ 0.00388 to 0.485 µM)
